Test results published in ChEMBL document CHEMBL1275550, “In vitro activity of doripenem, a carbapenem for the treatment of challenging infections caused by gram-negative bacteria, against recent clinical isolates from the United States” (2008).
In brackets after ≈: the same amount, converted by molar mass.

Tests used:
Serratia marcescens [1] = test: Antimicrobial activity against Ceftazidime non-susceptible Serratia marcescens by broth microdilution method; format: functional
Enterobacter cloacae [2] = test: Antimicrobial activity against Enterobacter cloacae with nonderepressed AmpC beta-lactamsae assessed as intermediate isolate by broth microdilution method; format: functional
Enterobacter cloacae [3] = test: Antimicrobial activity against Enterobacter cloacae with nonderepressed AmpC beta-lactamsae by broth microdilution method; format: functional
Pseudomonas aeruginosa [4] = test: Antimicrobial activity against Pseudomonas aeruginosa isolated from patient by broth microdilution method
Pseudomonas aeruginosa [5] = test: Antimicrobial activity against imipenem susceptible Pseudomonas aeruginosa by broth microdilution method; format: functional
Enterobacter cloacae [6] = test: Antimicrobial activity against Enterobacter cloacae with derepressed AmpC beta-lactamsae assessed as intermediate isolate by broth microdilution method; format: functional
Proteus mirabilis [7] = test: Antimicrobial activity against Non-ESBL Proteus mirabilis assessed as susceptible isolate by broth microdilution method; format: functional
Acinetobacter [8] = test: Antimicrobial activity against imipenem susceptible Acinetobacter by broth microdilution method; format: functional
Serratia marcescens [9] = test: Antimicrobial activity against Ceftazidime non-susceptible Serratia marcescens assessed as intermediate isolate by broth microdilution method; format: functional
Enterobacteriaceae [10] = test: Antimicrobial activity against Ceftazidime non-susceptible Enterobacteriaceae by broth microdilution method; format: functional
Enterobacteriaceae [11] = test: Antimicrobial activity against Ceftazidime non-susceptible Enterobacteriaceae assessed as intermediate isolate by broth microdilution method; format: functional
Acinetobacter [12] = test: Antimicrobial activity against imipenem susceptible Acinetobacter assessed as susceptible isolate by broth microdilution method; format: functional
Serratia marcescens [13] = test: Antimicrobial activity against Ceftazidime susceptible Serratia marcescens assessed as intermediate isolate by broth microdilution method; format: functional
Serratia marcescens [14] = test: Antimicrobial activity against Ceftazidime susceptible Serratia marcescens by broth microdilution method; format: functional
Pseudomonas aeruginosa [15] = test: Antimicrobial activity against imipenem susceptible Pseudomonas aeruginosa assessed as susceptible isolate by broth microdilution method; format: functional
Enterobacteriaceae [16] = test: Antimicrobial activity against ceftazidime-susceptible Enterobacteriaceae by broth microdilution method; format: functional
Pseudomonas aeruginosa [17] = test: Antimicrobial activity against Pseudomonas aeruginosa isolated from ICU patient assessed as resistant isolate by broth microdilution method
Citrobacter [18] = test: Antimicrobial activity against Citrobacter with derepressed AmpC beta-lactamsae by broth microdilution method; format: functional
Pseudomonas aeruginosa [19] = test: Antimicrobial activity against Pseudomonas aeruginosa isolated from ICU patient by broth microdilution method; format: functional
Pseudomonas aeruginosa [20] = test: Antimicrobial activity against imipenem non-susceptible Pseudomonas aeruginosa by broth microdilution method; format: functional
Proteus mirabilis [21] = test: Antimicrobial activity against ESBL producing Proteus mirabilis assessed as susceptible isolate by broth microdilution method; format: functional
Enterobacteriaceae [22] = test: Antimicrobial activity against ceftazidime-susceptible Enterobacteriaceae assessed as intermediate isolate by broth microdilution method; format: functional
Citrobacter [23] = test: Antimicrobial activity against Citrobacter with derepressed AmpC beta-lactamsae assessed as susceptible isolate by broth microdilution method; format: functional
Pseudomonas aeruginosa [24] = test: Antimicrobial activity against Ceftazidime susceptible Pseudomonas aeruginosa assessed as resistant isolate by broth microdilution method; format: functional
Klebsiella pneumoniae [25] = test: Antimicrobial activity against ESBL producing Klebsiella pneumoniae assessed as susceptible isolate by broth microdilution method; format: functional
Acinetobacter [26] = test: Antimicrobial activity against imipenem non-susceptible Acinetobacter by broth microdilution method; format: functional
Pseudomonas aeruginosa [27] = test: Antimicrobial activity against imipenem susceptible Pseudomonas aeruginosa assessed as intermediate isolate by broth microdilution method; format: functional
Enterobacteriaceae [28] = test: Antimicrobial activity against ceftazidime-susceptible Enterobacteriaceae assessed as resistant isolate by broth microdilution method; format: functional
Escherichia coli [29] = test: Antimicrobial activity against Non-ESBL Escherichia coli assessed as susceptible isolate by broth microdilution method; format: functional
Pseudomonas aeruginosa [30] = test: Antimicrobial activity against Ceftazidime susceptible Pseudomonas aeruginosa assessed as intermediate isolate by broth microdilution method; format: functional
Pseudomonas aeruginosa [31] = test: Antimicrobial activity against Ceftazidime susceptible Pseudomonas aeruginosa assessed as susceptible isolate by broth microdilution method; format: functional
Citrobacter [32] = test: Antimicrobial activity against Citrobacter with nonderepressed AmpC beta-lactamsae assessed as susceptible isolate by broth microdilution method; format: functional
Citrobacter [33] = test: Antimicrobial activity against Citrobacter with nonderepressed AmpC beta-lactamsae assessed as intermediate isolate by broth microdilution method; format: functional
Escherichia coli [34] = test: Antimicrobial activity against ESBL producing Escherichia coli assessed as susceptible isolate by broth microdilution method; format: functional
Pseudomonas aeruginosa [35] = test: Antimicrobial activity against Pseudomonas aeruginosa isolated from non-ICU patient by broth microdilution method; format: functional
Proteus mirabilis [36] = test: Antimicrobial activity against ESBL producing Proteus mirabilis assessed as intermediate isolate by broth microdilution method; format: functional
Pseudomonas aeruginosa [37] = test: Antimicrobial activity against Ceftazidime susceptible Pseudomonas aeruginosa by broth microdilution method; format: functional
Acinetobacter [38] = test: Antimicrobial activity against imipenem non-susceptible Acinetobacter assessed as resistant isolate by broth microdilution method; format: functional
Klebsiella pneumoniae [39] = test: Antimicrobial activity against ESBL producing Klebsiella pneumoniae assessed as intermediate isolate by broth microdilution method; format: functional
Enterobacter cloacae [40] = test: Antimicrobial activity against Enterobacter cloacae with derepressed AmpC beta-lactamsae by broth microdilution method; format: functional
Pseudomonas aeruginosa [41] = test: Antimicrobial activity against Ceftazidime non-susceptible Pseudomonas aeruginosa assessed as intermediate isolate by broth microdilution method; format: functional

Compound: CC(C)(O/N=C(\C(=O)N[C@@H]1C(=O)N2C(C(=O)[O-])=C(C[n+]3ccccc3)CS[C@H]12)c1csc(N)n1)C(=O)O [CEFTAZIDIME]
- MIC (Serratia marcescens [1]): > 32 µg/mL
- MIC50 (Serratia marcescens [1]): > 32 µg/mL
- MIC90 (Serratia marcescens [1]): > 32 µg/mL
- Activity (Enterobacter cloacae [2]): 0.7%
- MIC50 (Enterobacter cloacae [3]): 0.25 µg/mL (≈ 0.457 µM)
- MIC90 (Enterobacter cloacae [3]): 2 µg/mL (≈ 3.66 µM)
- Activity (Pseudomonas aeruginosa [4]): 2.3%
- MIC50 (Pseudomonas aeruginosa [5]): 2 µg/mL (≈ 3.66 µM)
- MIC90 (Pseudomonas aeruginosa [5]): 8 µg/mL (≈ 14.6 µM)
- Activity (Enterobacter cloacae [6]): 1.9%
- Activity (Proteus mirabilis [7]): 99.5%
- MIC50 (Acinetobacter [8]): 4 µg/mL (≈ 7.32 µM)
- MIC90 (Acinetobacter [8]): > 32 µg/mL
- Activity (Serratia marcescens [9]): 0%
- MIC50 (Enterobacteriaceae [10]): > 32 µg/mL
- MIC90 (Enterobacteriaceae [10]): > 32 µg/mL
- Activity (Enterobacteriaceae [11]): 7.6%
- Activity (Acinetobacter [12]): 66.8%
- Activity (Serratia marcescens [13]): 0%
- MIC50 (Serratia marcescens [14]): 0.12 µg/mL (≈ 0.22 µM)
- MIC90 (Serratia marcescens [14]): 0.5 µg/mL (≈ 0.915 µM)
- Activity (Pseudomonas aeruginosa [15]): 90.9%
- MIC50 (Enterobacteriaceae [16]): 0.12 µg/mL (≈ 0.22 µM)
- MIC90 (Enterobacteriaceae [16]): 0.5 µg/mL (≈ 0.915 µM)
- Activity (Pseudomonas aeruginosa [17]): 14.4%
- MIC (Citrobacter [18]): > 32 µg/mL
- MIC50 (Citrobacter [18]): > 32 µg/mL
- MIC90 (Citrobacter [18]): > 32 µg/mL
- MIC50 (Pseudomonas aeruginosa [19]): 2 µg/mL (≈ 3.66 µM)
- MIC90 (Pseudomonas aeruginosa [19]): 32 µg/mL (≈ 58.5 µM)
- MIC50 (Pseudomonas aeruginosa [20]): 4 µg/mL (≈ 7.32 µM)
- MIC90 (Pseudomonas aeruginosa [20]): > 32 µg/mL
- Activity (Proteus mirabilis [21]): 50%
- Activity (Enterobacteriaceae [22]): 0%
- Activity (Citrobacter [23]): 0%
- Activity (Pseudomonas aeruginosa [24]): 0%
- Activity (Klebsiella pneumoniae [25]): 4.5%
- MIC50 (Acinetobacter [26]): > 32 µg/mL
- MIC90 (Acinetobacter [26]): > 32 µg/mL
- Activity (Pseudomonas aeruginosa [27]): 2.2%
- Activity (Enterobacteriaceae [28]): 0%
- Activity (Escherichia coli [29]): 98.6%
- Activity (Pseudomonas aeruginosa [30]): 0%
- Activity (Pseudomonas aeruginosa [31]): 100%
- Activity (Citrobacter [32]): 98.3%
- Activity (Citrobacter [33]): 0.4%
- Activity (Escherichia coli [34]): 33.3%
- MIC50 (Pseudomonas aeruginosa [35]): 2 µg/mL (≈ 3.66 µM)
- MIC90 (Pseudomonas aeruginosa [35]): 32 µg/mL (≈ 58.5 µM)
- Activity (Proteus mirabilis [36]): 50%
- MIC50 (Pseudomonas aeruginosa [37]): 2 µg/mL (≈ 3.66 µM)
- MIC90 (Pseudomonas aeruginosa [37]): 4 µg/mL (≈ 7.32 µM)
- Activity (Acinetobacter [38]): 84.3%
- Activity (Klebsiella pneumoniae [39]): 0%
- MIC50 (Enterobacter cloacae [40]): > 32 µg/mL
- MIC90 (Enterobacter cloacae [40]): > 32 µg/mL
- Activity (Pseudomonas aeruginosa [41]): 23.6%
